In paper PMC5874177 (Journal of the American Chemical Society, 2018):
Read-outs that look alike come from different tables or passages of the source.

Key:
[1] = target: T1, tryptophan 2,3-dioxygenase (TDO) (Homo sapiens, UniProt P48775); assay type: biochemical
[2] = target: T1, tryptophan 2,3-dioxygenase (TDO); assay type: biochemical; remark: listed apart in the source

T1 sequence (P48775 whole entry): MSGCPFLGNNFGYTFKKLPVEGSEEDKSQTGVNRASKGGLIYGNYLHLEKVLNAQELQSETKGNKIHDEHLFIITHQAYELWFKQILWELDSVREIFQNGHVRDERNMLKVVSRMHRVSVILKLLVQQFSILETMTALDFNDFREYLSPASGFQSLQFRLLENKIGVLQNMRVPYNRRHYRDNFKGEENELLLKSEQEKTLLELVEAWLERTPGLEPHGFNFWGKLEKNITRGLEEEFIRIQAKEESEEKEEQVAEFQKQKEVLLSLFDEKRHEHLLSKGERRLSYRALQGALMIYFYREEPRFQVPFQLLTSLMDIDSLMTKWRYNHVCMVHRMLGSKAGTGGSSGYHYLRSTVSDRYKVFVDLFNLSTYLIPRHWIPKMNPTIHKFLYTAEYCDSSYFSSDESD

Ki [1]	Compound	Ki [2]
320 ± 43 µM	CC(Cc1c[nH]c2ccccc12)C(=O)O (centres unmarked) [compound 1, probe 1]	
	O=C(O)C(O)Cc1c[nH]c2ccccc12 (centres unmarked) [compound 2, probe 2]	444 ± 32 µM
